Target: T1, 5-lipoxygenase (Rattus norvegicus, UniProt P12527)
T1 construct: 20,000×g supernatant from 6×10^4 homogenized RBL-1 cells; endogenous in cells; host or cells: RBL-1 cells (20,000×g supernatant of homogenate)
T1 sequence (P12527 1-673): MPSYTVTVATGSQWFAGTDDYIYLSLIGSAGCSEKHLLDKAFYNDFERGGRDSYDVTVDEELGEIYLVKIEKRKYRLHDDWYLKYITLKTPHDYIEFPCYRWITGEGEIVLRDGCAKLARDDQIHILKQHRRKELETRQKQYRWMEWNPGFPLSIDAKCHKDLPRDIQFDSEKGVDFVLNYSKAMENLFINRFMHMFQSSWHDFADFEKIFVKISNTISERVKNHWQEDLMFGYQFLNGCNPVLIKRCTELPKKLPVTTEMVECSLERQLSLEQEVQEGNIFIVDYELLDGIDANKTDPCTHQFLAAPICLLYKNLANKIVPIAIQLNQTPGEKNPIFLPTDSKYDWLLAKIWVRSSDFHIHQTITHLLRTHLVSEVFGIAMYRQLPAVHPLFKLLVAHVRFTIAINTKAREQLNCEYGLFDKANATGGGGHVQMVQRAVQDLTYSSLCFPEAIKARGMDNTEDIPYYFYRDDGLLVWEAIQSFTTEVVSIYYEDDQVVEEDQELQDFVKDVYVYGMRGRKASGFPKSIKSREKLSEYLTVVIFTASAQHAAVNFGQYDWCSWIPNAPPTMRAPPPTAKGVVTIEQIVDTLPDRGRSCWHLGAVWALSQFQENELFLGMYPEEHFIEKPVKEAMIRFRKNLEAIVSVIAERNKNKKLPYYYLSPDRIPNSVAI
Assay: 5-lipoxygenase inhibition, 20,000×g supernatant of homogenized RBL-1 cells, radiolabelled arachidonic acid
Type: biochemical
Settings: In vitro 5-lipoxygenase inhibitory potency; RBL-1 cell 20,000×g supernatant, 2% DMSO
Description: Assays to determine 5-lipoxygenase activity were performed in 200 μL incubations containing the 20,000×g supernatant from 6×10^4 homogenized RBL-1 cells, 2% DMSO vehicle and various concentrations of the test compound. Reactions were initiated by addition of radiolabelled arachidonic acid and terminated by acidification and ether extraction. Reaction products were separated from nonconverted substrate by thin layer chromatography and measured by liquid scintillation spectroscopy. All treatments were evaluated in triplicate incubations. Inhibition of 5-lipoxygenase activity was computed by comparison of the quantity of products formed in the treatment incubations to the mean product formation in vehicle control groups (n=8). IC50 values and 95% confidence limits were computed by linear regression analysis of percentage inhibition versus log inhibitor concentration plots. The results of the assay indicate that the compounds are inhibitors of 5-lipoxygenase.

Row | IC50 [µM] | Compound
1 | 85 | CNC(=O)N(O)Cc1nc2ccccc2n1C [Example 1, N-hydroxy-N-(1-methyl-benzo[b]imidazol-2-ylmethyl)N'-methylurea]
2 | 1.9 | CC(c1nc2ccccc2s1)N(O)C(N)=O (centres unmarked) [Example 2, N-hydroxy-N-(1-benzo[b]thiazol-2-ylethyl)urea]
